The target of one assay is KRas Q61H (Homo sapiens, UniProt P01116, Q61H). Put plainly: KRas binding assay (TR-FRET displacement), KRas Q61H. Particulars: single point, 10 nM compound. For orientation: Time-resolved FRET reads energy transfer from a long-lived donor to a nearby acceptor.
In another assay the target is KRas G12S (Homo sapiens, UniProt P01116, G12S). Type of assay: binding. As to conditions: single point, 10 nM compound, read-out: Binding to KRas (% inhibition at 10 nM) G12S.
Another assay concerns A549 cells. Put plainly: Inhibition of KRas-mediated phosphorylation of ERK (Cisbio HTRF pERK), A549 cells. Type of assay: cell-based. As to conditions: Homo sapiens; for IC50: A549, 3 h, 3 hr compound incubation, Cisbio pERK HTRF; for inhibition at 0.1 µM: single point at 100 nM, 3 hrs compound incubation.
The subject of the next assay is ASPC1 cells. Put plainly: Inhibition of KRas-mediated phosphorylation of ERK (Cisbio HTRF pERK), ASPC1 cells. It counts as cell-based. Particulars: Homo sapiens, AsPC-1 cells; for IC50: ASPC1, 3 h, 3 hr compound incubation, Cisbio pERK HTRF; for inhibition at 0.1 µM: ASPC1, single point at 100 nM, 3 hrs compound incubation.
Another assay deals with KRas WT (Homo sapiens, UniProt P01116). Briefly: KRas binding assay (TR-FRET displacement), KRas WT. Particulars: single point, 10 nM compound.
Another assay deals with PSN1 cells. Put plainly: Inhibition of KRas-mediated phosphorylation of ERK (Cisbio HTRF pERK), PSN1 cells. As to conditions: Homo sapiens, PSN1, 3 h, 3 hour compound incubation, Cisbio pERK HTRF. Type of assay: cell-based. The gist of the method:
(§1)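 Cells were seeded on day 1 at 6,000 per well in RPMI containing 10% FBS before compound treatment and phospho-ERK detection.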

In a further assay the test system is MKN1 cells. Briefly: Inhibition of KRas-mediated phosphorylation of ERK (Cisbio HTRF pERK), MKN1 cells. It counts as cell-based. As to conditions: Homo sapiens, MKN-1, 3 hour compound incubation, Cisbio pERK HTRF. The gist of the method: as §1
The target of another assay is KRas G12C (Homo sapiens, UniProt P01116, G12C). It counts as binding. As to conditions: single point, 10 nM compound, read-out: Binding to KRas (% inhibition at 10 nM) G12C.
The target of the next assay is KRas G12A (Homo sapiens, UniProt P01116, G12A). It counts as binding. As to conditions: single point, 10 nM compound, read-out: Binding to KRas (% inhibition at 10 nM) G12A.
In another assay the target is KRas G12V (Homo sapiens, UniProt P01116, G12V). Put plainly: biochemical. Particulars: Binding to KRas (IC50 nM) G12V, TR-FRET displacement, KRas G12V.
In the next assay the test system is HCT116 cells. Briefly: Inhibition of KRas-mediated phosphorylation of ERK (Cisbio HTRF pERK), HCT116 cells. Type of assay: cell-based. As to conditions: Homo sapiens; for IC50: HCT-116, 3 h, 3 hr compound incubation, Cisbio pERK HTRF; for inhibition at 0.1 µM: HCT-116, single point at 100 nM, 3 hrs compound incubation.
The test system of a further assay is H460 cells. Briefly: Inhibition of KRas-mediated phosphorylation of ERK (Cisbio HTRF pERK), H460 cells. It counts as cell-based. Particulars: Homo sapiens; for IC50: NCI-H460, 3 h, 3 hr compound incubation, Cisbio pERK HTRF; for inhibition at 0.1 µM: NCI-H460, single point at 100 nM, 3 hrs compound incubation.
The subject of a further assay is H727 cells. Briefly: Inhibition of KRas-mediated phosphorylation of ERK (Cisbio HTRF pERK), H727 cells. It counts as cell-based. Particulars: Homo sapiens; for IC50: NCI-H727, 3 h, 3 hr compound incubation, Cisbio pERK HTRF; for inhibition at 0.1 µM: NCI-H727, single point at 100 nM, 3 hrs compound incubation.
The target of a further assay is KRas G13D (Homo sapiens, UniProt P01116, G13D). It counts as binding. Particulars: single point, 10 nM compound, read-out: Binding to KRas (% inhibition at 10 nM) G13D.
A further assay relates to H358 cells. Put plainly: Inhibition of KRas-mediated phosphorylation of ERK (Cisbio HTRF pERK), H358 cells. Type of assay: cell-based. Particulars: Homo sapiens; for IC50: NCI-H358, 3 h, 3 hr compound incubation, Cisbio pERK HTRF; for inhibition at 0.1 µM: NCI-H358, single point at 100 nM, 3 hrs compound incubation.
A further assay addresses KRas G12R (Homo sapiens, UniProt P01116, G12R). Put plainly: biochemical. As to conditions: Binding to KRas (IC50 nM) G12R, TR-FRET displacement, KRas G12R.
A further assay has as its target KRas G12D (Homo sapiens, UniProt P01116, G12D). Briefly: biochemical. As to conditions: Binding to KRas (IC50 nM) G12D, TR-FRET displacement, KRas G12D.

The source of these data is patent US20250368649A1, “TETRAHYDROPYRIDOPYRIMIDINE PAN-KRAS INHIBITORS” (Mirati Therapeutics, Inc., priority 2022, published 2025).

Sequence of KRas G12R (P01116 1-169 isoform P01116-2 G12R): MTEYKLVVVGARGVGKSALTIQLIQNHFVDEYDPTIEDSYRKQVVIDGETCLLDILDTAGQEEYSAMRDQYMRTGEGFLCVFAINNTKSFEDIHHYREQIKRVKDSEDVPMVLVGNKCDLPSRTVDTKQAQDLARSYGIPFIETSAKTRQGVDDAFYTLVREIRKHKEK
Sequence of KRas WT (P01116 1-169 isoform P01116-2): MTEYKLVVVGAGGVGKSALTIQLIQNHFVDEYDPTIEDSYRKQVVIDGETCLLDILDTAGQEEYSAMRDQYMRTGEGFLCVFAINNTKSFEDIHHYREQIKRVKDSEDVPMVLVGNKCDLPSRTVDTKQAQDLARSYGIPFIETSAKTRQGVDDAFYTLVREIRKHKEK
Sequence of KRas G12S (P01116 1-169 isoform P01116-2 G12S): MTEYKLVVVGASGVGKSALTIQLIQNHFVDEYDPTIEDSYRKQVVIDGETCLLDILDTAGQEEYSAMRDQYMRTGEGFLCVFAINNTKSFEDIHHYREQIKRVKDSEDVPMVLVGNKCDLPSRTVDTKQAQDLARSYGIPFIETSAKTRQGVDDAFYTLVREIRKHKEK
Sequence of KRas G12A (P01116 1-169 isoform P01116-2 G12A): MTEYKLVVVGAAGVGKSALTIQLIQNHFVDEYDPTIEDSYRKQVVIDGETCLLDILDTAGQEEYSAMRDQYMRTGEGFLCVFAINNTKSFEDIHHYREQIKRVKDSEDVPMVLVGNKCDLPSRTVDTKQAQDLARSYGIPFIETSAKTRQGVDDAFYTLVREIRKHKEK
Sequence of KRas Q61H (P01116 1-169 isoform P01116-2 Q61H): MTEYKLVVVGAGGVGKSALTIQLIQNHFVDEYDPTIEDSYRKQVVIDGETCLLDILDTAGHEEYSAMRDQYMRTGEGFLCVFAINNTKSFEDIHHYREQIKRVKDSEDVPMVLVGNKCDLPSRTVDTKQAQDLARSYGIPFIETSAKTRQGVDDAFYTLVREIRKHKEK
Sequence of KRas G12D (P01116 1-169 isoform P01116-2 G12D): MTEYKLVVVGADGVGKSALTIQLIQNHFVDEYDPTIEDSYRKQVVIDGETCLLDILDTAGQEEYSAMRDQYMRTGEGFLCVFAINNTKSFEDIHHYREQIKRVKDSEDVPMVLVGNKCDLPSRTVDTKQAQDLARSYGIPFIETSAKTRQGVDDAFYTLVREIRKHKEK
Sequence of KRas G13D (P01116 1-169 isoform P01116-2 G13D): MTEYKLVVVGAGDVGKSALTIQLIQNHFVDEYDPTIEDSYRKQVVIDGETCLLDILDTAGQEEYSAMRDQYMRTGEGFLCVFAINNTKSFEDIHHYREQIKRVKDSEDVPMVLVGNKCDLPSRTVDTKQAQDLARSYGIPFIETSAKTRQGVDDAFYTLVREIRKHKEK
Sequence of KRas G12V (P01116 1-169 isoform P01116-2 G12V): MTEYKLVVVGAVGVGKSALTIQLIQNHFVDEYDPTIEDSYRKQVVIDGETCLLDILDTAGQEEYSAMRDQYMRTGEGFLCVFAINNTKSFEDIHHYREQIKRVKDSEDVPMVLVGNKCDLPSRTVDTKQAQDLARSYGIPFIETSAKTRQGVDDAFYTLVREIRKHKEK
Sequence of KRas G12C (P01116 1-169 isoform P01116-2 G12C): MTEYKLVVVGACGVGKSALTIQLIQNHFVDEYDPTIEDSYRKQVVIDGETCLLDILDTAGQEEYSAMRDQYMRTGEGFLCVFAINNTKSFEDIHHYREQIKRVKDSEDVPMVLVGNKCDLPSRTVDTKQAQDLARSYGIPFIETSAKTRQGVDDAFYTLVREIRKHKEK

`CCc1c(F)ccc2cc(O)cc(N3CCc4c(nc(OC[C@@]56CCCN5C[C@H](F)C6)nc4N4CCCn5nc(C(=O)N6CC[C@@H]7CC[C@H]6C7)cc5C4)C3)c12` [Example 338, (1S,5S)-2-azabicyclo[3.2.1]octan-2-yl(5-(7-(8-ethyl-7-fluoro-3-hydroxynaphthalen-1-yl)-2-(((2R,7aS)-2-fluorohexahydro-1H-pyrrolizin-7a-yl)methoxy)-5,6,7,8-tetrahydropyrido[3,4-d]pyrimidin-4-yl)-5,6,7,8-tetrahydro-4H-pyrazolo[1,5-a][1,4]diazepin-2-yl)methanone]: the inhibition (in general, the drop in the measured response relative to a control, in per cent) at 0.01 µM at KRas Q61H is 93%; on KRas G12S, 97%; at KRas WT, 92%; on KRas G12C it was 97%; on KRas G12A, 90%; at KRas G13D it was 92%. The IC50 – broadly, the concentration at which inhibition is half-maximal – was 21 nM in the assay with A549 cells; 6 nM in the assay on ASPC1 cells; 5430 nM with PSN1 cells; 9.6 nM in the assay with MKN1 cells; below 2 nM at KRas G12V; 226 nM with HCT116 cells. Besides, the IC50 in the assay on H460 cells is 67 nM; in the assay on H727 cells, 11 nM; with H358 cells, 7 nM; at KRas G12R, below 2 nM; at KRas G12D, 2 nM. Also, the inhibition at 0.1 µM in the assay with A549 cells was 78%; with ASPC1 cells, 95%; with HCT116 cells, 38%; in the assay with H460 cells it was 73%; in the assay with H727 cells, 76%; with H358 cells, 102%.
As for `CCc1c(F)ccc2cc(O)cc(N3CCc4c(nc(OC[C@@]56CCCN5C[C@H](F)C6)nc4N4CCCn5nc(C(=O)N6CC7CCC6CC7)cc5C4)C3)c12` [Example 339, 2-azabicyclo[2.2.2]octan-2-yl(5-(7-(8-ethyl-7-fluoro-3-hydroxynaphthalen-1-yl)-2-(((2R,7aS)-2-fluorohexahydro-1H-pyrrolizin-7a-yl)methoxy)-5,6,7,8-tetrahydropyrido[3,4-d]pyrimidin-4-yl)-5,6,7,8-tetrahydro-4H-pyrazolo[1,5-a][1,4]diazepin-2-yl)methanone], the inhibition at 0.01 µM came out at 94% at KRas Q61H; 97% on KRas G12S; 93% at KRas WT; 98% on KRas G12C; 92% at KRas G12A; 92% at KRas G13D. In addition, the half-maximal inhibitory concentration (IC50) was 17 nM with A549 cells; 6 nM in the assay on ASPC1 cells; 5720 nM with PSN1 cells; 8.4 nM in the assay on MKN1 cells; below 2 nM on KRas G12V; 156 nM with HCT116 cells. Besides, the IC50 in the assay on H460 cells was 43 nM; with H727 cells it was 6 nM; in the assay on H358 cells it was 4 nM; at KRas G12R it was below 2 nM; at KRas G12D, 2 nM. The inhibition at 0.1 µM turned out to be 80% with A549 cells; 97% in the assay on ASPC1 cells; 20% in the assay with HCT116 cells; 59% in the assay with H460 cells; 74% in the assay with H727 cells; 95% in the assay on H358 cells.
As to `CCc1c(F)ccc2cc(O)cc(N3CCc4c(nc(OC[C@@]56CCCN5C[C@H](F)C6)nc4N4CCCn5nc(C(=O)N6C7CCC6CC7)cc5C4)C3)c12` [Example 340, 7-azabicyclo[2.2.1]heptan-7-yl(5-(7-(8-ethyl-7-fluoro-3-hydroxynaphthalen-1-yl)-2-(((2R,7aS)-2-fluorohexahydro-1H-pyrrolizin-7a-yl)methoxy)-5,6,7,8-tetrahydropyrido[3,4-d]pyrimidin-4-yl)-5,6,7,8-tetrahydro-4H-pyrazolo[1,5-a][1,4]diazepin-2-yl)methanone], the inhibition at 0.01 µM on KRas Q61H came to 97%; on KRas G12S it was 99%; on KRas WT, 94%; on KRas G12C, 98%; at KRas G12A it was 97%; on KRas G13D, 94%. Further, the IC50 is 11 nM in the assay on A549 cells; 8 nM in the assay with ASPC1 cells; 2510 nM in the assay on PSN1 cells; 7.5 nM in the assay with MKN1 cells; below 2 nM on KRas G12V; 110 nM in the assay on HCT116 cells. For the same molecule, the IC50 was 31 nM in the assay with H460 cells; 4 nM in the assay on H727 cells; 3 nM with H358 cells; below 2 nM on KRas G12R; below 2 nM at KRas G12D. The inhibition at 0.1 µM with A549 cells was determined as 82%; with ASPC1 cells it was 96%; in the assay on HCT116 cells, 32%; with H460 cells it was 69%; in the assay with H727 cells it was 80%; with H358 cells, 96%.
Regarding `CCc1c(F)ccc2cc(O)cc(N3CCc4c(nc(OC[C@@]56CCCN5C[C@H](F)C6)nc4N4CCCn5nc(C(=O)N6C7CCCC6CC7)cc5C4)C3)c12` [Example 341, 8-azabicyclo[3.2.1]octan-8-yl(5-(7-(8-ethyl-7-fluoro-3-hydroxynaphthalen-1-yl)-2-(((2R,7aS)-2-fluorohexahydro-1H-pyrrolizin-7a-yl)methoxy)-5,6,7,8-tetrahydropyrido[3,4-d]pyrimidin-4-yl)-5,6,7,8-tetrahydro-4H-pyrazolo[1,5-a][1,4]diazepin-2-yl)methanone], the inhibition at 0.01 µM amounted to 95% at KRas Q61H; 96% at KRas G12S; 93% on KRas WT; 97% on KRas G12C; 87% on KRas G12A; 92% on KRas G13D. Further, the IC50 was 19 nM in the assay on A549 cells; 8 nM in the assay on ASPC1 cells; 4530 nM in the assay with PSN1 cells; 6.7 nM in the assay with MKN1 cells; below 2 nM on KRas G12V; 141 nM in the assay with HCT116 cells. Further, the IC50 was determined as 42 nM in the assay on H460 cells; 9 nM in the assay on H727 cells; 3 nM in the assay on H358 cells; 2 nM at KRas G12R; 2 nM at KRas G12D. The inhibition at 0.1 µM in the assay on A549 cells was 75%; with ASPC1 cells, 95%; in the assay on HCT116 cells, 47%; in the assay with H460 cells, 77%; in the assay with H727 cells, 76%; with H358 cells, 91%.
